From the supplement of paper PMC10307832

How the values were obtained:
Assay in all cases: relative viability (nuclei count vs DMSO), 5 days (fraction); higher = more cells survive
[1] = compound: C=CC(=O)N1CCC[C@@H](n2nc(-c3ccc(Oc4ccccc4)cc3)c3c(N)ncnc32)C1 [Ibrutinib] + CCNC(=O)c1noc(-c2cc(C(C)C)c(O)cc2O)c1-c1ccc(CN2CCOCC2)cc1 [Luminespib] (partner 0.01 µM)
In short: (§1)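 A single step with final 0.05% Triton X-100, 1% formaldehyde and 1 ug/ml Hoechst fixed the cells and stained nuclei 5 days after treatment. Lung cancer cell lines in 1536-well plates had been treated by pin tool the day after seeding with one drug alone or a fixed anchor-drug dose plus five library-drug doses (not always all listed) in √10 steps, and nuclei were counted on 4× images. Relative viability is the ratio of nuclei in treated wells to nuclei in vehicle wells, taken as the median of duplicate plates.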

[2] = compound: C=CC(=O)N1CCC[C@@H](n2nc(-c3ccc(Oc4ccccc4)cc3)c3c(N)ncnc32)C1 [Ibrutinib] + Nc1nc2[nH]cc(CCc3ccc(C(=O)N[C@@H](CCC(=O)O)C(=O)O)cc3)c2c(=O)[nH]1 [Pemetrexed] (partner 0.2 µM)
In short: as §1

[3] = compound: C=CC(=O)Nc1cc(-n2c(=O)ccc3cnc4ccc(-c5ccc(NS(C)(=O)=O)cc5)cc4c32)ccc1C [BMX-IN-1] + COc1cc2c(Oc3ccc(NC(=O)C4(C(=O)Nc5ccc(F)cc5)CC4)cc3F)ccnc2cc1OCCCN1CCOCC1 [Foretinib] (partner 0.25 µM)
In short: as §1

[4] = compound: C=CCc1cccc(/C=N/NC(=O)CN2CCN(Cc3ccccc3)CC2)c1O [PAC-1] + COc1cccc2cc(-c3nc([C@H]4CC[C@H](C(=O)O)CC4)n4ncnc(N)c34)[nH]c12 [OSI-027] (partner 0.5 µM)
In short: as §1

NCI-H647
relative viability ([1]; first compound 0.01581 µM): 0.14
relative viability ([1]; first compound 0.05 µM): 0.239
relative viability ([1]; first compound 0.1581 µM): 0.181
relative viability ([1]; first compound 0.5 µM): 0.196
relative viability ([2]; first compound 0.005 µM): 0.197
relative viability ([2]; first compound 0.01581 µM): 0.183
relative viability ([2]; first compound 0.05 µM): 0.205
relative viability ([2]; first compound 0.1581 µM): 0.194
relative viability ([2]; first compound 0.5 µM): 0.421
relative viability ([3]; first compound 0.02 µM): 1.32
relative viability ([3]; first compound 0.2 µM): 1.58
relative viability ([3]; first compound 0.6325 µM): 1.14
relative viability ([3]; first compound 2 µM): 1.21
relative viability ([4]; first compound 0.02 µM): 0.684
relative viability ([4]; first compound 0.06325 µM): 0.762
relative viability ([4]; first compound 0.2 µM): 0.594
relative viability ([4]; first compound 2 µM): 0.617

Calu-6
relative viability ([3]; first compound 0.02 µM): 0.918
relative viability ([3]; first compound 0.2 µM): 1.07
relative viability ([3]; first compound 0.6325 µM): 0.908
relative viability ([3]; first compound 2 µM): 0.776

201T
relative viability ([1]; first compound 0.005 µM): 1.03
relative viability ([1]; first compound 0.01581 µM): 1.02
relative viability ([1]; first compound 0.05 µM): 1.07
relative viability ([1]; first compound 0.1581 µM): 1.05
relative viability ([1]; first compound 0.5 µM): 0.953
relative viability ([2]; first compound 0.005 µM): 0.296
relative viability ([2]; first compound 0.01581 µM): 0.301
relative viability ([2]; first compound 0.05 µM): 0.363
relative viability ([2]; first compound 0.1581 µM): 0.363
relative viability ([2]; first compound 0.5 µM): 0.507
relative viability ([3]; first compound 0.02 µM): 1.25
relative viability ([3]; first compound 0.2 µM): 1.14
relative viability ([3]; first compound 0.6325 µM): 0.912
relative viability ([3]; first compound 2 µM): 1.12
relative viability ([4]; first compound 0.02 µM): 0.702
relative viability ([4]; first compound 0.06325 µM): 0.754
relative viability ([4]; first compound 0.2 µM): 0.848
relative viability ([4]; first compound 2 µM): 0.839

CAL-12T
relative viability ([1]; first compound 0.005 µM): 0.417
relative viability ([1]; first compound 0.01581 µM): 0.14
relative viability ([1]; first compound 0.05 µM): 0.416
relative viability ([1]; first compound 0.1581 µM): 0.276
relative viability ([1]; first compound 0.5 µM): 0.302
relative viability ([2]; first compound 0.005 µM): 1.26
relative viability ([2]; first compound 0.01581 µM): 1.19
relative viability ([2]; first compound 0.05 µM): 1.12
relative viability ([2]; first compound 0.1581 µM): 1.26
relative viability ([2]; first compound 0.5 µM): 1.27
relative viability ([3]; first compound 0.02 µM): 1.28
relative viability ([3]; first compound 0.2 µM): 1.2
relative viability ([3]; first compound 0.6325 µM): 1.31
relative viability ([3]; first compound 2 µM): 1.1
relative viability ([4]; first compound 0.02 µM): 0.673
relative viability ([4]; first compound 0.06325 µM): 0.723
relative viability ([4]; first compound 0.2 µM): 0.567
relative viability ([4]; first compound 2 µM): 0.645

HCC-78
relative viability ([2]; first compound 0.01581 µM): 0.84
relative viability ([2]; first compound 0.05 µM): 0.892
relative viability ([2]; first compound 0.1581 µM): 0.879
relative viability ([2]; first compound 0.5 µM): 0.93
relative viability ([3]; first compound 0.02 µM): 0.626
relative viability ([3]; first compound 0.2 µM): 0.544
relative viability ([3]; first compound 0.6325 µM): 0.587
relative viability ([3]; first compound 2 µM): 0.545
relative viability ([4]; first compound 0.02 µM): 0.336
relative viability ([4]; first compound 0.06325 µM): 0.335
relative viability ([4]; first compound 0.2 µM): 0.376
relative viability ([4]; first compound 2 µM): 0.396

LK-2
relative viability ([1]; first compound 0.01581 µM): 0.183
relative viability ([1]; first compound 0.05 µM): 0.176
relative viability ([1]; first compound 0.1581 µM): 0.166
relative viability ([1]; first compound 0.5 µM): 0.164
relative viability ([2]; first compound 0.005 µM): 0.194
relative viability ([2]; first compound 0.01581 µM): 0.328
relative viability ([2]; first compound 0.05 µM): 0.263
relative viability ([2]; first compound 0.1581 µM): 0.225
relative viability ([2]; first compound 0.5 µM): 0.26
relative viability ([3]; first compound 0.02 µM): 1.59
relative viability ([3]; first compound 0.2 µM): 1.54
relative viability ([3]; first compound 0.6325 µM): 1.04
relative viability ([3]; first compound 2 µM): 1.03
relative viability ([4]; first compound 0.02 µM): 0.186
relative viability ([4]; first compound 0.06325 µM): 0.195
relative viability ([4]; first compound 0.2 µM): 0.208
relative viability ([4]; first compound 2 µM): 0.206

NCI-H522
relative viability ([1]; first compound 0.005 µM): 1.11
relative viability ([1]; first compound 0.01581 µM): 1.05
relative viability ([1]; first compound 0.05 µM): 1.17
relative viability ([1]; first compound 0.1581 µM): 1.07
relative viability ([1]; first compound 0.5 µM): 0.922
relative viability ([2]; first compound 0.005 µM): 1.12
relative viability ([2]; first compound 0.01581 µM): 0.789
relative viability ([2]; first compound 0.05 µM): 0.795
relative viability ([2]; first compound 0.1581 µM): 0.925
relative viability ([2]; first compound 0.5 µM): 0.956
relative viability ([4]; first compound 0.02 µM): 0.673
relative viability ([4]; first compound 0.06325 µM): 0.695
relative viability ([4]; first compound 0.2 µM): 0.737
relative viability ([4]; first compound 2 µM): 0.691

NCI-H322M
relative viability ([1]; first compound 0.005 µM): 0.648
relative viability ([1]; first compound 0.01581 µM): 0.726
relative viability ([1]; first compound 0.05 µM): 0.785
relative viability ([1]; first compound 0.1581 µM): 0.752
relative viability ([1]; first compound 0.5 µM): 0.473
relative viability ([2]; first compound 0.005 µM): 0.659
relative viability ([2]; first compound 0.01581 µM): 0.572
relative viability ([2]; first compound 0.05 µM): 0.605
relative viability ([2]; first compound 0.1581 µM): 0.537
relative viability ([2]; first compound 0.5 µM): 0.536
relative viability ([3]; first compound 0.02 µM): 1.13
relative viability ([3]; first compound 0.2 µM): 0.958
relative viability ([3]; first compound 0.6325 µM): 0.967
relative viability ([3]; first compound 2 µM): 0.941
relative viability ([4]; first compound 0.02 µM): 0.547
relative viability ([4]; first compound 0.06325 µM): 0.586
relative viability ([4]; first compound 0.2 µM): 0.543
relative viability ([4]; first compound 2 µM): 0.505

COR-L 105
relative viability ([1]; first compound 0.005 µM): 0.765
relative viability ([1]; first compound 0.01581 µM): 0.802
relative viability ([1]; first compound 0.05 µM): 0.744
relative viability ([1]; first compound 0.1581 µM): 0.883
relative viability ([1]; first compound 0.5 µM): 0.599
relative viability ([2]; first compound 0.005 µM): 0.778
relative viability ([2]; first compound 0.01581 µM): 1.16
relative viability ([2]; first compound 0.05 µM): 0.855
relative viability ([2]; first compound 0.1581 µM): 1.06
relative viability ([2]; first compound 0.5 µM): 0.692
relative viability ([3]; first compound 0.02 µM): 1.12
relative viability ([3]; first compound 0.2 µM): 1.2
relative viability ([3]; first compound 0.6325 µM): 1.37
relative viability ([3]; first compound 2 µM): 1.17
relative viability ([4]; first compound 0.02 µM): 0.756
relative viability ([4]; first compound 0.06325 µM): 0.669
relative viability ([4]; first compound 0.2 µM): 0.615
relative viability ([4]; first compound 2 µM): 0.756

LOU-NH91
relative viability ([1]; first compound 0.005 µM): 0.333
relative viability ([1]; first compound 0.01581 µM): 0.346
relative viability ([1]; first compound 0.05 µM): 0.267
relative viability ([1]; first compound 0.1581 µM): 0.294
relative viability ([1]; first compound 0.5 µM): 0.309
relative viability ([2]; first compound 0.005 µM): 0.426
relative viability ([2]; first compound 0.01581 µM): 0.404
relative viability ([2]; first compound 0.05 µM): 0.449
relative viability ([2]; first compound 0.1581 µM): 0.377
relative viability ([2]; first compound 0.5 µM): 0.543
relative viability ([3]; first compound 0.02 µM): 0.938
relative viability ([3]; first compound 0.6325 µM): 1.01
relative viability ([3]; first compound 2 µM): 0.942
relative viability ([4]; first compound 0.02 µM): 0.643
relative viability ([4]; first compound 0.06325 µM): 0.68
relative viability ([4]; first compound 0.2 µM): 0.727
relative viability ([4]; first compound 2 µM): 0.715
